According to patent publication US12377175B2, “Trifunctional constructs with tunable pharmacokinetics useful in imaging and anti-tumor therapies” (Cornell University, priority 2016, dated 2025):

Key:
[1] = system: LNCaP xenograft tumor-bearing mice; experiment: PET/CT imaging of 66Ga-RPS ligands in LNCaP xenograft mice; format: in vivo, mouse; conditions: 66Ga PET/CT; for maximum uptake in the tumor (image-derived): over 1, 3, 6 and 24 h post injection
Protocol: (§1) Inoculation of mice with xenografts: All animal studies were approved by the Institutional Animal Care and Use Committee of Weill Cornell Medicine and were undertaken in accordance with the guidelines set forth by the USPHS Policy on Humane Care and Use of Laboratory Animals. Animals were housed under standard conditions in approved facilities with 12 h light/dark cycles. Food and water was provided ad libitum throughout the course of the studies. Hairless male nu/nu mice were purchased from the Jackson Laboratory. For inoculation in mice, LNCaP cells were suspended at 4×10^7 cells/mL in a 1:1 mixture of PBS:Matrigel (BD Biosciences). Each mouse was injected in the left flank with 0.25 mL of the cell suspension. The mice were imaged when the tumors reached approximately 200-400 mm^3, while biodistributions were conducted when tumors were in the range 100-400 mm^3.
Imaging of ^66Ga-RPS ligands in LNCaP xenograft mice: LNCaP xenograft tumor-bearing mice (2-3 per compound) injected intravenously with a bolus injection of 0.56-5.4 MBq (15-145 μCi) of the ^66Ga-labeled ligand. The specific activity of the tracers was in the range 14.8-47 MBq/μmol (0.4-1.27 mCi/μmol). The mice were imaged using PET/CT (Inveon™; Siemens Medical Solutions, Inc.) at 1, 3, 6 and 24 h post-injection following inhalation anesthetization with isoflurane. Total acquisition time was 30 min for the 1 h, 3 h and 6 h images, and 60 min for 24 h time point. A CT scan was obtained immediately before the acquisition for both anatomical co-registration and attenuation correction. Images were reconstructed using the Inveon™ software supplied by the vendor. Image-derived tumor and kidney uptake was estimated by comparison to a 10% injected dose […] standard introduced into the imaging field of view. The standard was prepared by dilution of 10% of the injected activity to 1 mL with saline. Volumes of interest (VOIs) were drawn with the aid of the CT and confirmed by PET. The contents of the VOIs were integrated and the calculated counts were converted to […] by direct comparison to the aforementioned standard following correction for activity injected.

[2] = system: LNCaP xenograft tumor-bearing mice; experiment: Biodistribution studies of 177Lu-labeled ligands in LNCaP xenograft mice; format: in vivo, mouse; conditions: for Max. Tumor Uptake: corresponding 177Lu-labeled compound, 4 h p.i. (a)
Protocol: as §1
Biodistribution studies of 177Lu-labeled ligands in LNCaP xenograft mice: LNCaP xenograft tumor-bearing mice (5 per time point per compound) were injected intravenously with a bolus injection of 348-851 kBq (9.4-23 μCi) and 37-50 ng ([…]) of each ligand. The mice were sacrificed at 4, 24 and 96 h post injection. A blood sample was removed, and a full biodistribution study was conducted on the following organs (with contents): heart, lungs, liver, small intestine, large intestine, stomach, spleen, pancreas, kidneys, muscle, bone and tumor. Tissues were weighed and counted on a 2470 Wizard^2 Automatic Gamma Counter (Perkin Elmer). Counts were corrected for decay and for activity injected, and tissue uptake was expressed as percent injected dose per gram (% ID/g). Standard error measurement was calculated for each data point.

Compound | time of maximum uptake in the tumor [1] | maximum uptake in the tumor (image-derived) [1] | tumor uptake (image-derived) ([1]; 24 h post injection) | Max. Tumor Uptake [2] | also measured
O=C(O)CCC(NC(=O)NC(CCCCNC(=O)C(Cc1ccc2ccccc2c1)NC(=O)C1CCC(CNC(=O)CN2CCN(CC(=O)O)CCN(CC(=O)O)CCN(CC(=O)O)CC2)CC1)C(=O)O)C(=O)O (stereo not shown) [66Ga-PSMA-617, metal not drawn, reference compound] | 1 h | 3.1±0.4 % ID/cm^3 | – | – | maximum kidney uptake (image-derived) [1]: 0.4±0.1 % ID/cm^3; kidney uptake (image-derived) ([1]; 24 h post injection): 0.1±0.1 % ID/cm^3
O=C([O-])CN1CCN(CC(=O)[O-])CCN(CC(=O)O)C(Cc2ccc(NC(=S)NCCCC[C@H](NC(=O)CCOCCOCCOCCOCCn3cc(-c4cccc(NC(=O)NCCCC[C@H](NC(=O)N[C@@H](CCC(=O)O)C(=O)O)C(=O)O)c4)nn3)C(=O)N[C@@H](CCCCNC(=O)Cc3ccc(I)cc3)C(=O)O)cc2)CN(CC(=O)[O-])CC1.[66Ga+3] (stereo partly shown) [66Ga-RPS-061] | – | – | 6.1±1.1 % ID/cm^3 | – | kidney uptake (image-derived) ([1]; 1 h post injection): 10.5±2.1 % ID/cm^3
O=C([O-])CN1CCN(CC(=O)[O-])CCN(CC(=O)O)C(Cc2ccc(NC(=S)NCCCC[C@H](NC(=O)CCOCCOCCOCCn3cc(-c4cccc(NC(=O)NCCCC[C@H](NC(=O)N[C@@H](CCC(=O)O)C(=O)O)C(=O)O)c4)nn3)C(=O)N[C@@H](CCCCNC(=O)Cc3ccc(I)cc3)C(=O)O)cc2)CN(CC(=O)[O-])CC1.[66Ga+3] (stereo partly shown) [66Ga-RPS-063] | 6 h | 9.5±2.4 % ID/cm^3 | 7.9±3.0 % ID/cm^3 | – | –
O=C([O-])CN1CCN(CC(=O)[O-])CCN(CC(=O)O)C(Cc2ccc(NC(=S)NCCCC[C@H](NC(=O)CCOCCOCCOCCOCCOCCOCCOCCOCCn3cc(-c4cccc(NC(=O)NCCCC[C@H](NC(=O)N[C@@H](CCC(=O)O)C(=O)O)C(=O)O)c4)nn3)C(=O)N[C@@H](CCCCNC(=O)Cc3ccc(I)cc3)C(=O)O)cc2)CN(CC(=O)[O-])CC1.[66Ga+3] (stereo partly shown) [66Ga-RPS-066] | 3 h | 7.8±0.7 % ID/cm^3 | 5.5±0.4 % ID/cm^3 | – | kidney uptake (image-derived) ([1]; 24 h post injection): 0.2±0.1 % ID/cm^3
O=C(O)CCC(NC(=O)NC(CCCCNC(=O)Nc1cccc(-c2cnnn2CC(=O)NC(CCCCNC(=S)Nc2ccc(CC3CN(CC(=O)O)CCN(CC(=O)O)CCN(CC(=O)O)CCN3CC(=O)O)cc2)C(=O)NC(CCCCNC(=O)Cc2ccc(I)cc2)C(=O)O)c1)C(=O)O)C(=O)O (stereo not shown) [177Lu-RPS-068, metal not drawn] | – | – | – | – | blood activity (comparison within the series) ([2]; 4 h p.i.): highest blood activity
O=C(O)CC[C@H](NC(=O)N[C@@H](CCCCNC(=O)Nc1cccc(-c2cn(CCOCCOCCOCCOCCC(=O)N[C@@H](CCCCNC(=S)Nc3ccc(CC4CN(CC(=O)O)CCN(CC(=O)O)CCN(CC(=O)O)CCN4CC(=O)O)cc3)C(=O)N[C@@H](CCCCNC(=O)Cc3ccc(I)cc3)C(=O)O)nn2)c1)C(=O)O)C(=O)O (stereo partly drawn) [RPS-061, (((1S)-1-carboxy-5-(3-(3-(1-((17S,20S)-20-carboxy-27-(4-iodophenyl)-15,18,26-trioxo-17-(4-(3-(4-((1,4,7,10-tetrakis(carboxymethyl)-1,4,7,10-tetraazacyclododecan-2-yl)methyl)phenyl)thioureido)butyl)-3,6,9,12-tetraoxa-16,19,25-triazaheptacosyl)-1H-1,2,3-triazol-4-yl)phenyl)ureido)pentyl)carbamoyl)-L-glutamic acid] | – | – | – | 20.4 ± 3.1 % ID/g | –
O=C(O)CC[C@H](NC(=O)N[C@@H](CCCCNC(=O)Nc1cccc(-c2cn(CCOCCOCCOCCC(=O)N[C@@H](CCCCNC(=S)Nc3ccc(CC4CN(CC(=O)O)CCN(CC(=O)O)CCN(CC(=O)O)CCN4CC(=O)O)cc3)C(=O)N[C@@H](CCCCNC(=O)Cc3ccc(I)cc3)C(=O)O)nn2)c1)C(=O)O)C(=O)O (stereo partly drawn) [RPS-063, (((1S)-1-carboxy-5-(3-(3-(1-((14S,17S)-17-carboxy-24-(4-iodophenyl)-12,15,23-trioxo-14-(4-(3-(4-((1,4,7,10-tetrakis(carboxymethyl)-1,4,7,10-tetraazacyclododecan-2-yl)methyl)phenyl)thioureido)butyl)-3,6,9-trioxa-13,16,22-triazatetracosyl)-1H-1,2,3-triazol-4-yl)phenyl)ureido)pentyl)carbamoyl)-L-glutamic acid] | – | – | – | 30.0 ± 6.9 % ID/g | –
O=C(O)CC[C@H](NC(=O)N[C@@H](CCCCNC(=O)Nc1cccc(-c2cn(CCOCCOCCOCCOCCOCCOCCOCCOCCC(=O)N[C@@H](CCCCNC(=S)Nc3ccc(CC4CN(CC(=O)O)CCN(CC(=O)O)CCN(CC(=O)O)CCN4CC(=O)O)cc3)C(=O)N[C@@H](CCCCNC(=O)Cc3ccc(I)cc3)C(=O)O)nn2)c1)C(=O)O)C(=O)O (stereo partly drawn) [RPS-066, (((1S)-1-carboxy-5-(3-(3-(1-((29S,32S)-32-carboxy-39-(4-iodophenyl)-27,30,38-trioxo-29-(4-(3-(4-((1,4,7,10-tetrakis(carboxymethyl)-1,4,7,10-tetraazacyclododecan-2-yl)methyl)phenyl)thioureido)butyl)-3,6,9,12,15,18,21,24-octaoxa-28,31,37-triazanonatriacontyl)-1H-1,2,3-triazol-4-yl)phenyl)ureido)pentyl)carbamoyl)-L-glutamic acid] | – | – | – | 18.7 ± 1.1 % ID/g | –
O=C(O)CC[C@H](NC(=O)N[C@@H](CCCCNC(=O)Nc1cccc(-c2cnnn2CCOCCOCCOCCOCCOCCOCCOCCOCCOCCOCCOCCOCCC(=O)N[C@@H](CCCCNC(=S)Nc2ccc(CC3CN(CC(=O)O)CCN(CC(=O)O)CCN(CC(=O)O)CCN3CC(=O)O)cc2)C(=O)N[C@@H](CCCCNC(=O)Cc2ccc(I)cc2)C(=O)O)c1)C(=O)O)C(=O)O (stereo partly drawn) [RPS-067, (((1S)-1-carboxy-5-(3-(3-(1-((41S,44S)-44-carboxy-51-(4-iodophenyl)-39,42,50-trioxo-41-(4-(3-(4-((1,4,7,10-tetrakis(carboxymethyl)-1,4,7,10-tetraazacyclododecan-2-yl)methyl)phenyl)thioureido)butyl)-3,6,9,12,15,18,21,24,27,30,33,36-dodecaoxa-40,43,49-triazahenpentacontyl)-1H-1,2,3-triazol-5-yl)phenyl)ureido)pentyl)carbamoyl)-L-glutamic acid] | – | – | – | 7.6 ± 1.2 % ID/g | –
O=C(O)CC[C@H](NC(=O)N[C@@H](CCCCNC(=O)Nc1cccc(-c2cn(CCOCCOCCOCCOCCOCCOCCC(=O)N[C@@H](CCCCNC(=S)Nc3ccc(CC4CN(CC(=O)O)CCN(CC(=O)O)CCN(CC(=O)O)CCN4CC(=O)O)cc3)C(=O)N[C@@H](CCCCNC(=O)Cc3ccc(I)cc3)C(=O)O)nn2)c1)C(=O)O)C(=O)O (stereo partly drawn) [RPS-069, (((1S)-1-carboxy-5-(3-(3-(1-((23S,26S)-26-carboxy-33-(4-iodophenyl)-21,24,32-trioxo-23-(4-(3-(4-((1,4,7,10-tetrakis(carboxymethyl)-1,4,7,10-tetraazacyclododecan-2-yl)methyl)phenyl)thioureido)butyl)-3,6,9,12,15,18-hexaoxa-22,25,31-triazatritriacontyl)-1H-1,2,3-triazol-4-yl)phenyl)ureido)pentyl)carbamoyl)-L-glutamic acid] | – | – | – | 17.0 ± 2.1 % ID/g | –
